# Biological target: T1, IRAK4 (Homo sapiens, UniProt Q9NWZ3)
# T1 construct: endogenous in cells; host or cells: OCI-LY10
# T1 sequence (Q9NWZ3 1-460): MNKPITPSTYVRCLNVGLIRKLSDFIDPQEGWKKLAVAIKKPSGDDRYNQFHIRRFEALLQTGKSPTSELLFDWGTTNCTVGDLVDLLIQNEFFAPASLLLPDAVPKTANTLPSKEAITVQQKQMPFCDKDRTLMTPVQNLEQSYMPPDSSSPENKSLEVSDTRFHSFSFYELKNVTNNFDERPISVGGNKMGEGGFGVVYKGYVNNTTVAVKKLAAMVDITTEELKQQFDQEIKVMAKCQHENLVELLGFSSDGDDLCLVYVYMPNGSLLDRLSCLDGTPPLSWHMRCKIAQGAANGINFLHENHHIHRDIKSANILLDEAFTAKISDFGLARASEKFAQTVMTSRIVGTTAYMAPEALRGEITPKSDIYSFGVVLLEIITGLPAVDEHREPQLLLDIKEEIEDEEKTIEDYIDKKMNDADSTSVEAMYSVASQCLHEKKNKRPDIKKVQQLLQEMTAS
# Experiment: IRAK4 MSD Degradation in OCI-LY10
# Type: cell-based
# Conditions: OCI-LY10 cells, Meso Scale Discovery, incubated 4 to 24 hours
# Description: Degradation of IRAK4 in OCI-LY10 was quantitatively measured using Meso Scale Discovery technology. OCI-LY10 cells were seeded in 96-well plates (Corning 3799) with a density of 300,000 cells per well in 100 μL fresh media. Compounds were then added to the assay plates with a final top concentration of 1 to 10 μM in a 1:3 dilution series with total of 8 doses. The assay plates were then incubated for 4 to 24 hours at 37° C. under 5% CO2. The assay plates were then centrifuged for 5 minutes and the cell pellets were treated with 100 μL/well RIPA lysis buffer (Boston BioProducts BP-115D) with proteinase inhibitors. To prepare MSD assay plates (Meso Scale Discovery Catalog number L15XA-3), the plates were coated with 2 μg/mL capture antibody (mouse Anti-IRAK4 antibody [2H9], ab119942) in PBS, at 40 μL/well. The plates were then incubated overnight at 4° C., washed 3 times with 150 μL/well TBST buffer (Cell Signaling Technology, Catalog number 9997S) and blocked with 150 μL/well blocking buffer (Meso Scale Discovery Catalog number R93BA-4). Cell lysates were then added to MSD assay plates and the plates were incubated at room temperature for 1 hour. The plates were then washed 3 times with 150 μL/well TBST buffer and […] primary detection antibody (rabbit Anti-IRAK4 antibody [Y279], from Abcam. Catalog number ab32511, 1 μg/mL). The assay plates were then incubated at room temperature for 1 hour, washed 3 times with 150 μL/well TBST buffer and 254/well secondary detection antibody, SULFO-TAG anti-rabbit antibody were added (anti rabbit antibody from Meso Scale Discovery, Catalog number R32AB-1, 1 μg/mL). The assay plates were then incubated at room temperature for 1 hour, washed 3 times with 150 μL/well TBST buffer, and 150 μL/well MSD reading buffer (Meso Scale Discovery catalog number R92TC-2) was added. The plates were then analyzed by a MSD reader (Meso Scale Discovery, Model Quick Plex SQ 120). The data was then analyzed by software Prism 7.0 from GraphPad and the dose-depended IRAK4 degradation were fit using a three-parameter logistic equation to calculate DC50.
# The letter codes for IRAK4 DC50 include: A (<0.01 μM); B (0.01-0.05 μM); C (0.05-0.1 μM); D (0.1-0.2 μM); and E (>0.2 μM).
row,Compound,DC50 [nM]
1,"CN(CCn1cc2cc(NC(=O)c3cnn4cccnc34)c(F)cc2n1)C1CCN(c2cccc3c2n(C)c(=O)n3C2CCC(=O)NC2=O)CC1 (stereo not drawn) [I-22, N-[2-[2-[[1-[1-(2,6-dioxo-3-piperidyl)-3-methyl-2-oxo-benzimidazol-4-yl]-4-piperidyl]-methyl-amino]ethyl]-6-fluoro-indazol-5-yl]pyrazolo[1,5-a] pyrimidine-3-carboxamide]",> 200
2,Cn1c(=O)n(C2CCC(=O)NC2=O)c2cccc(C3CCN(C[C@H]4CC[C@H](N5Cc6cc(NC(=O)c7cccc(C(F)(F)F)n7)c(N7C[C@@H]8C[C@H]7CO8)cc6C5=O)CC4)CC3)c21 (stereo partly drawn) [I-27],< 10
3,Cn1c(=O)n(C2CCC(=O)NC2=O)c2cccc(C3CCN(C[C@H]4CC[C@H](N5Cc6cc(NC(=O)c7cccc(C(F)(F)F)n7)c(N7C[C@H]8C[C@@H]7CO8)cc6C5=O)CC4)CC3)c21 (stereo partly drawn) [I-29],< 10
4,Cn1c(=O)n(C2CCC(=O)NC2=O)c2cccc(C3CCN(C[C@H]4C[C@H](n5cc6cc(NC(=O)c7cccc(C(F)(F)F)n7)c(F)cc6n5)C4)CC3)c21 (stereo partly drawn) [I-30],10 to 50
5,"COc1cc2nn([C@H]3C[C@H](CN(C)C4CCN(c5cccc6c5n(C)c(=O)n6C5CCC(=O)NC5=O)CC4)C3)cc2cc1NC(=O)c1cccc(C(F)(F)F)n1 (stereo partly drawn) [I-31, N-[2-[3-[[[1-[1-(2,6-dioxo-3-piperidyl)-3-methyl-2-oxo-benzimidazol-4-yl]-4-piperidyl]-methyl-amino]methyl]cyclobutyl]-6-methoxy-indazol-5-yl]-6-(trifluoromethyl)pyridine-2-carboxamide]",< 10
6,"COc1cc2nn([C@H]3C[C@@H](CN(C)C4CCN(c5cccc6c5n(C)c(=O)n6C5CCC(=O)NC5=O)CC4)C3)cc2cc1NC(=O)c1cccc(C(F)(F)F)n1 (stereo partly drawn) [I-32, N-[2-[3-[[[1-[1-(2,6-dioxo-3-piperidyl)-3-methyl-2-oxo-benzimidazol-4-yl]-4-piperidyl]-methyl-amino]methyl]cyclobutyl]-6-methoxy-indazol-5-yl]-6-(trifluoromethyl)pyridine-2-carboxamide]",< 10
7,Cn1c(=O)n(C2CCC(=O)NC2=O)c2cccc(C3CCN(C[C@H]4CC[C@H](n5cc6cc(NC(=O)c7cccc(C(F)(F)F)n7)c(N7CCOCC7)cc6n5)CC4)CC3)c21 (stereo partly drawn) [I-38],< 10
8,COc1cc2nn([C@H]3CC[C@H](CN(C)C4CCN(c5c(C)ccc6c5n(C)c(=O)n6C5CCC(=O)NC5=O)CC4)CC3)cc2cc1NC(=O)c1cccc(C(F)(F)F)n1 (stereo partly drawn) [I-40],10 to 50
9,COc1cc2c(cc1NC(=O)c1cccc(C(F)(F)F)n1)cc([C@H]1CC[C@H](CN(C)C3CCN(c4cccc5c4n(C)c(=O)n5C4CCC(=O)NC4=O)CC3)CC1)n2C (stereo partly drawn) [I-41],> 200
10,COc1cc2c(cc1NC(=O)c1cccc(C(F)(F)F)n1)cc([C@H]1CC[C@H](CN3CCC(c4cccc5c4n(C)c(=O)n5C4CCC(=O)NC4=O)CC3)CC1)n2C (stereo partly drawn) [I-43],> 200
11,Cn1c(=O)n(C2CCC(=O)NC2=O)c2cccc(C3CCN(C[C@H]4CC[C@H](n5cc6cc(NC(=O)c7cccc(C(F)(F)F)n7)c(N7C[C@H]8C[C@@H]7CO8)cc6n5)CC4)CC3)c21 (stereo partly drawn) [I-44],< 10
12,"COc1cc2nn([C@H]3C[C@H](CN4CC(c5cccc6c5n(C)c(=O)n6C5CCC(=O)NC5=O)C4)C3)cc2cc1NC(=O)c1cccc(C(F)(F)F)n1 (stereo partly drawn) [I-46, N-[2-[3-[[3-[1-(2,6-dioxo-3-piperidyl)-3-methyl-2-oxo-benzimidazol-4-yl]azetidin-1-yl]methyl]cyclobutyl]-6-methoxy-indazol-5-yl]-6-(trifluoromethyl)pyridine-2-carboxamide]",10 to 50
13,Cn1c(=O)n(C2CCC(=O)NC2=O)c2cccc(C3CCN(C[C@H]4CC[C@H](n5cc6cc(NC(=O)c7cnccn7)c(F)cc6n5)CC4)CC3)c21 (stereo partly drawn) [I-49],> 200
14,"COc1cc2nn([C@H]3C[C@@H](CN4CC(c5cccc6c5n(C)c(=O)n6C5CCC(=O)NC5=O)C4)C3)cc2cc1NC(=O)c1cccc(C(F)(F)F)n1 (stereo partly drawn) [I-50, N-[2-[3-[[3-[1-(2,6-dioxo-3-piperidyl)-3-methyl-2-oxo-benzimidazol-4-yl]azetidin-1-yl]methyl]cyclobutyl]-6-methoxy-indazol-5-yl]-6-(trifluoromethyl)pyridine-2-carboxamide]",10 to 50
15,COc1cc2nn([C@H]3CC[C@H](CN(C)C4CCN(c5c(Cl)ccc6c5n(C)c(=O)n6C5CCC(=O)NC5=O)CC4)CC3)cc2cc1NC(=O)c1cccc(C(F)(F)F)n1 (stereo partly drawn) [I-53],10 to 50
16,Cn1c(=O)n(C2CCC(=O)NC2=O)c2cccc(C3CCN(C[C@H]4CC[C@H](n5cc6cc(NC(=O)c7cccc(C(F)(F)F)n7)c(N7C[C@@H]8C[C@H]7CO8)cc6n5)CC4)CC3)c21 (stereo partly drawn) [I-55],10 to 50
17,Cn1c(=O)n(C2CCC(=O)NC2=O)c2cccc(C3CCN(C[C@H]4CC[C@H](n5cc6cc(NC(=O)c7cccc(C(F)(F)F)n7)ccc6n5)CC4)CC3)c21 (stereo partly drawn) [I-57],< 10

# Other lines, results leading:
row,DC50 [nM],Compound
1,100 to 200,Cc1cc(C2CCN(C[C@H]3CC[C@H](n4cc5cc(NC(=O)c6cccc(C(F)(F)F)n6)c(F)cc5n4)CC3)CC2)c2c(c1)n(C1CCC(=O)NC1=O)c(=O)n2C (stereo partly drawn) [I-23]
2,10 to 50,Cn1c(=O)n(C2CCC(=O)NC2=O)c2cccc(C3CCN(C[C@H]4CC[C@H](n5cc6cc(NC(=O)c7cccc(C(F)(F)F)n7)c(Cl)cc6n5)CC4)CC3)c21 (stereo partly drawn) [I-24]
3,< 10,Cn1c(=O)n(C2CCC(=O)NC2=O)c2c(F)ccc(C3CCN(C[C@H]4CC[C@H](n5cc6cc(NC(=O)c7cccc(C(F)(F)F)n7)c(F)cc6n5)CC4)CC3)c21 (stereo partly drawn) [I-25]
4,< 10,Cn1c(=O)n(C2CCC(=O)NC2=O)c2cc(F)cc(C3CCN(C[C@H]4CC[C@H](n5cc6cc(NC(=O)c7cccc(C(F)(F)F)n7)c(F)cc6n5)CC4)CC3)c21 (stereo partly drawn) [I-26]
5,< 10,COc1cc2nn([C@H]3C[C@H](CN4CCC(c5cccc6c5n(C)c(=O)n6C5CCC(=O)NC5=O)CC4)C3)cc2cc1NC(=O)c1cccc(C(F)(F)F)n1 (stereo partly drawn) [I-33]
6,< 10,COc1cc2nn([C@H]3CC[C@H](CN4CCC(c5cc(C)cc6c5n(C)c(=O)n6C5CCC(=O)NC5=O)CC4)CC3)cc2cc1NC(=O)c1cccc(C(F)(F)F)n1 (stereo partly drawn) [I-35]
7,< 10,COc1cc2nn([C@H]3CC[C@H](CN4CCC(c5cc(Cl)cc6c5n(C)c(=O)n6C5CCC(=O)NC5=O)CC4)CC3)cc2cc1NC(=O)c1cccc(C(F)(F)F)n1 (stereo partly drawn) [I-36]
8,< 10,COc1cc2nn([C@H]3CC[C@H](CN4CCC(c5c(Cl)ccc6c5n(C)c(=O)n6C5CCC(=O)NC5=O)CC4)CC3)cc2cc1NC(=O)c1cccc(C(F)(F)F)n1 (stereo partly drawn) [I-37]
9,< 10,COc1cc2nn([C@H]3CC[C@H](CN4CCC(c5c(C)ccc6c5n(C)c(=O)n6C5CCC(=O)NC5=O)CC4)CC3)cc2cc1NC(=O)c1cccc(C(F)(F)F)n1 (stereo partly drawn) [I-39]
10,< 10,Cn1c(=O)n(C2CCC(=O)NC2=O)c2cccc(C3CCN(C[C@H]4CC[C@H](n5cc6cc(NC(=O)c7cncc(C(F)(F)F)n7)c(F)cc6n5)CC4)CC3)c21 (stereo partly drawn) [I-45]
11,10 to 50,COc1ccc2c(c1C1CCN(C[C@H]3CC[C@H](n4cc5cc(NC(=O)c6cccc(C(F)(F)F)n6)c(F)cc5n4)CC3)CC1)n(C)c(=O)n2C1CCC(=O)NC1=O (stereo partly drawn) [I-47]
12,< 10,COc1cc2nn([C@H]3CC[C@H](CN4CCC(c5c(OC)ccc6c5n(C)c(=O)n6C5CCC(=O)NC5=O)CC4)CC3)cc2cc1NC(=O)c1cccc(C(F)(F)F)n1 (stereo partly drawn) [I-48]
13,< 10,COc1cc2nn([C@H]3CC[C@H](CN4CCC(c5ccc(F)c6c5n(C)c(=O)n6C5CCC(=O)NC5=O)CC4)CC3)cc2cc1NC(=O)c1cccc(C(F)(F)F)n1 (stereo partly drawn) [I-51]
14,< 10,COc1cc2nn([C@H]3CC[C@H](CN4CCC(c5cc(F)cc6c5n(C)c(=O)n6C5CCC(=O)NC5=O)CC4)CC3)cc2cc1NC(=O)c1cccc(C(F)(F)F)n1 (stereo partly drawn) [I-52]
15,< 10,COc1cc2nn([C@H]3CC[C@H](CN(C)C4CCN(c5cc(Cl)cc6c5n(C)c(=O)n6C5CCC(=O)NC5=O)CC4)CC3)cc2cc1NC(=O)c1cccc(C(F)(F)F)n1 (stereo partly drawn) [I-54]
16,10 to 50,COc1cc2nn([C@H]3CC[C@H](CN(C)C4CCN(c5cc(C)cc6c5n(C)c(=O)n6C5CCC(=O)NC5=O)CC4)CC3)cc2cc1NC(=O)c1cccc(C(F)(F)F)n1 (stereo partly drawn) [I-56]

# Reference: US12150995B2, “IRAK degraders and uses thereof” (Kymera Therapeutics, Inc., priority 2020, dated 2024)
